From ChEMBL document CHEMBL4619778, “Oligopeptides as Neuropeptide Y Y4 Receptor Ligands: Identification of a High-Affinity Tetrapeptide Agonist and a Hexapeptide Antagonist” (J Med Chem, 2020)
Square brackets hold non-standard residues; d marks the D form. Peptide text beside a SMILES is read from it. ξ: configuration not given here. ξOrn = NCCCC(N)C(=O)O

Assays:
[1] = target: T1, Neuropeptide Y receptor type 4 (Homo sapiens, UniProt P50391); assay: Agonist activity at human Y4R expressed in HEK293T cells co-expressing ARRB2 assessed as induction of beta-arrestin2 recruitment measured for 40 mins by D-luciferin based luminescence assay; format: cell-based, HEK-293T
T1 sequence (P50391 whole entry): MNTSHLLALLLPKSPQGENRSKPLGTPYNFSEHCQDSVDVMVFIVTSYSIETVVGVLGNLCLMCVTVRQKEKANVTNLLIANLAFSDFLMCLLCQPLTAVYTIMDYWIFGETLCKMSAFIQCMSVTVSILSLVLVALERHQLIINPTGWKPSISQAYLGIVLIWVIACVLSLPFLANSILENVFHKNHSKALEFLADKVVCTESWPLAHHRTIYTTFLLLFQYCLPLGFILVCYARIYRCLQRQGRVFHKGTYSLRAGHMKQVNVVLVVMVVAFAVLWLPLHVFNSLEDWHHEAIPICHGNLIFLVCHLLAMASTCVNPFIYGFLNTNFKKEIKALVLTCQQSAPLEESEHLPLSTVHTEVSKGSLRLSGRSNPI

[2] = target: T1, Neuropeptide Y receptor type 4; assay: Agonist activity at human Y4R expressed in HEK293T cells co-expressing ARRB1 assessed as induction of beta-arrestin1 recruitment measured for 40 mins by D-luciferin based luminescence assay; format: cell-based, HEK-293T
[3] = target: T1, Neuropeptide Y receptor type 4; assay: Displacement of [3H]UR-KK200 from human Y4 receptor expressed in CHO cells co-expressing Gqi5-mtAEQ measured after 90 mins by scintillation counting analysis; format: cell-based
[4] = target: T2, Neuropeptide Y receptor type 1 (Homo sapiens, UniProt P25929); assay: Displacement of [3H]UR-MK299 from Y1 receptor in human SK-N-MC cells; format: cell-based
T2 sequence (P25929 whole entry): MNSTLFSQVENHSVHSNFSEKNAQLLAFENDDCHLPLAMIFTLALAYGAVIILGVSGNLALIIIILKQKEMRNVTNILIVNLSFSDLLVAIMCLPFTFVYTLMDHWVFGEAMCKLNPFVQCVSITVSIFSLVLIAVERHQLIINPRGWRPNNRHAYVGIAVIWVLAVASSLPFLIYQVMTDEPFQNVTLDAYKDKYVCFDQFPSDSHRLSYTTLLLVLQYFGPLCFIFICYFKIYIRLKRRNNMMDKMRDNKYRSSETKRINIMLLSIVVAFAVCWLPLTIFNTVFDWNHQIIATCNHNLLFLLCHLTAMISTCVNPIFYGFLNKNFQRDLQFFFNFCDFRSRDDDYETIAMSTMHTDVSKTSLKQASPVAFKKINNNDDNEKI

[5] = target: T3, Neuropeptide Y receptor type 2 (Homo sapiens, UniProt P49146); assay: Displacement of [3H]propionyl-pNPY from human Y2 receptor expressed in CHO cells measured after 2 hrs by microbeta liquid scintillation counting analysis; format: cell-based
T3 sequence (P49146 whole entry): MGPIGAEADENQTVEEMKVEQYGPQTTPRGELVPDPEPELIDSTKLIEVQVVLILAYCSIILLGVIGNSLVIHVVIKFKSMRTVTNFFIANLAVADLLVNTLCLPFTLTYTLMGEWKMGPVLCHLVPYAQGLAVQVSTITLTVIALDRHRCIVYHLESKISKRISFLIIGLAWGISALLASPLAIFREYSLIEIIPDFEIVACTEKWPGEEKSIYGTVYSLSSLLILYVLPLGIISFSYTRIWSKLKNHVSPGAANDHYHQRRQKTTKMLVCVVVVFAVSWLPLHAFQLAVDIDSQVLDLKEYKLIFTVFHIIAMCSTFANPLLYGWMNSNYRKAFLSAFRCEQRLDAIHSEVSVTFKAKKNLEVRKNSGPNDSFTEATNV

[6] = target: T1, Neuropeptide Y receptor type 4; assay: Agonist activity at human Y4 receptor expressed in CHO cells co-expressing Gqi5-mtAEQ assessed as intracellular calcium mobilization measured for 43 secs in presence of coelenterazine by aequorin-reporter gene based luminescence assay; format: functional, cell-based
[7] = target: T4, Neuropeptide Y receptor type 5 (Homo sapiens, UniProt Q15761); assay: Displacement of [3H]propionyl-pNPY from human Y5 receptor expressed in human HEC1B cells; format: cell-based
T4 sequence (Q15761 whole entry): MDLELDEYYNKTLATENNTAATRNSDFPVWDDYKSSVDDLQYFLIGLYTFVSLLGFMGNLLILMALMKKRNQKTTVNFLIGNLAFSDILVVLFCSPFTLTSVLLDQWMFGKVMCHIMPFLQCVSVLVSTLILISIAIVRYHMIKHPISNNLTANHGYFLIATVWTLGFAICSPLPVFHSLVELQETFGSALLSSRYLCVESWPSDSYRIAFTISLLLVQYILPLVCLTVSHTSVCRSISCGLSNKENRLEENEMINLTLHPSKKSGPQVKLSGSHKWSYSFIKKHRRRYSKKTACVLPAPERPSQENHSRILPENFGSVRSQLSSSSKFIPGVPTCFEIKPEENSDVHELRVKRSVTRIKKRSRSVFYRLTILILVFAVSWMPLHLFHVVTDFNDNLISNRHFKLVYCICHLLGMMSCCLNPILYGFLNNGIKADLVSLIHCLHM

[8] = species on record: Homo sapiens; assay: Selectivity ratio of Ki for displacement of [3H]propionyl-pNPY from human Y5 receptor expressed in human HEC1B cells to Ki for displacement of [3H]UR-KK200 from human Y4 receptor expressed in CHO cells co-expressing Gqi5-mtAEQ; format: cell-based
[9] = species on record: Homo sapiens; assay: Selectivity ratio of Ki for displacement of [3H]UR-MK299 from Y1 receptor in human SK-N-MC cells to Ki for displacement of [3H]UR-KK200 from human Y4 receptor expressed in CHO cells co-expressing Gqi5-mtAEQ; format: cell-based
[10] = species on record: Homo sapiens; assay: Selectivity ratio of Ki for displacement of [3H]propionyl-pNPY from human Y2 receptor expressed in CHO cells to Ki for displacement of [3H]UR-KK200 from human Y4 receptor expressed in CHO cells co-expressing Gqi5-mtAEQ; format: cell-based

For `CC(C)C[C@@H](NC(=O)[C@@H](N)CCCNC(=N)N)C(=O)N[C@@H](CCCNC(=N)N)C(=O)N[C@@H](Cc1ccc(O)cc1)C(N)=O`, the EC50 ([1]; read-out: EC50) was over 30000 nM, the EC50 ([1]; read-out: pEC50 (converted)) was over 31600 nM and the EC50 ([2]; read-out: EC50) was over 30000 nM. It also gave an EC50 ([2]; read-out: pEC50 (converted)) of over 31600 nM and a Ki ([3]; read-out: Ki) of 93 nM.

`CC(C)C[C@H](NC(=O)[C@H](CCCNC(=N)N)NC(=O)[C@H](Cc1ccc(O)cc1)NC(=O)[C@@H](N)CCCNC(=N)N)C(=O)N[C@@H](CCCNC(=N)N)C(=O)N[C@@H](Cc1ccc(O)cc1)C(N)=O` was tested, and the Ki ([4]; read-out: Ki) was over 3000 nM, the Ki ([4]; read-out: pKi (converted)) was over 3160 nM and the EC50 ([1]; read-out: EC50) was 38 nM. It also gave a Ki ([5]; cho, read-out: Ki) of over 10000 nM, a Ki ([5]; read-out: pKi (converted)) of over 10000 nM and an EC50 ([6]; read-out: EC50) of 100 nM. It also gave a Ki ([7]; read-out: Ki) of over 3000 nM, a Ki ([7]; read-out: pKi (converted)) of over 3160 nM and an EC50 ([2]; read-out: EC50) of 51 nM. For the same compound, the Ratio Ki [8] was over 1500, the Ki ([3]; read-out: Ki) was 2 nM and the Ratio Ki [9] was over 1500. The Ratio Ki [10] was over 5000.

Ac-RGRLRY-NH2 showed a Ki ([4]; read-out: Ki) of over 3000 nM, a Ki ([4]; read-out: pKi (converted)) of over 3160 nM and an EC50 ([1]; read-out: EC50) of 250 nM. The Ki ([5]; cho, read-out: Ki) was over 1000 nM, the Ki ([5]; read-out: pKi (converted)) was over 1000 nM and the EC50 ([6]; read-out: EC50) was 1200 nM. It also gave a Ki ([7]; read-out: Ki) of over 3000 nM, a Ki ([7]; read-out: pKi (converted)) of over 3160 nM and an EC50 ([2]; read-out: EC50) of 180 nM. For the same compound, the Ratio Ki [8] was over 380, the Ki ([3]; read-out: Ki) was 7.9 nM and the Ki ([3]; read-out: pKi (converted)) was 7.59 nM. It also gave a Ratio Ki [9] of over 380 and a Ratio Ki [10] of over 130.

With `CC(=O)N[C@@H](CCCNC(=N)N)C(=O)NC(CCCN)C(=O)NCC(=O)N[C@@H](Cc1c[nH]c2ccccc12)C(=O)N[C@@H](CCCNC(=N)N)C(=O)N[C@@H](CC(C)C)C(=O)N[C@@H](CCCNC(=N)N)C(=O)N[C@@H](Cc1ccc(O)cc1)C(N)=O` (stereo partly specified) (Ac-R[ξOrn]GWRLRY-NH2) the Ki ([4]; read-out: pKi (converted)) was over 1000 nM, the Ki ([4]; sk-n-mc, read-out: Ki) was over 1000 nM and the EC50 ([1]; read-out: EC50) was 140 nM. For the same compound, the Ki ([5]; cho, read-out: Ki) was over 1000 nM, the Ki ([5]; read-out: pKi (converted)) was over 1000 nM and the EC50 ([6]; read-out: EC50) was 230 nM. It also gave a Ki ([7]; read-out: Ki) of over 1000 nM, a Ki ([7]; read-out: pKi (converted)) of over 1000 nM and an EC50 ([2]; read-out: EC50) of 170 nM. The Ratio Ki [8] was over 230, the Ki ([3]; read-out: Ki) was 4.3 nM and the Ratio Ki [9] was over 230. The Ratio Ki [10] was over 230.

`CC(C)C[C@H](NC(=O)[C@H](CCCNC(=N)N)NC(=O)[C@H](Cc1ccc(O)cc1)NC(=O)[C@@H](N)CCCNC(N)=O)C(=O)N[C@@H](CCCNC(=N)N)C(=O)N[C@@H](Cc1ccc(O)cc1)C(N)=O` showed a Ki ([4]; read-out: Ki) of over 3000 nM, a Ki ([4]; read-out: pKi (converted)) of over 3160 nM and an EC50 ([1]; read-out: EC50) of 150 nM. It also gave a Ki ([5]; read-out: Ki) of over 3000 nM, a Ki ([5]; read-out: pKi (converted)) of over 3160 nM and a Ki ([7]; read-out: Ki) of over 10000 nM. It also gave a Ki ([7]; read-out: pKi (converted)) of over 10000 nM, an EC50 ([2]; read-out: EC50) of 100 nM and a Ratio Ki [8] of over 2100. It also gave a Ki ([3]; read-out: Ki) of 4.8 nM, a Ki ([3]; read-out: pKi (converted)) of 4.47 nM and a Ratio Ki [9] of over 630. For the same compound, the Ratio Ki [10] was over 630.

For Ac-RRLRY-NH2, the Ki ([4]; read-out: Ki) was over 3000 nM, the Ki ([4]; read-out: pKi (converted)) was over 3160 nM and the EC50 ([1]; read-out: EC50) was 510 nM. The Ki ([5]; read-out: Ki) was over 3000 nM, the Ki ([5]; read-out: pKi (converted)) was over 3160 nM and the EC50 ([6]; read-out: EC50) was 2500 nM. The Ki ([7]; read-out: Ki) was over 10000 nM, the Ki ([7]; read-out: pKi (converted)) was over 10000 nM and the EC50 ([2]; read-out: EC50) was 600 nM. It also gave a Ratio Ki [8] of over 590, a Ki ([3]; read-out: Ki) of 17 nM and a Ki ([3]; read-out: pKi (converted)) of 14.1 nM. For the same compound, the Ratio Ki [9] was over 180 and the Ratio Ki [10] was over 180.

Ac-RFRLRY-NH2 was tested, and the Ki ([4]; read-out: pKi (converted)) was over 1000 nM, the Ki ([4]; sk-n-mc, read-out: Ki) was over 1000 nM and the EC50 ([1]; read-out: EC50) was 320 nM. The Ki ([5]; cho, read-out: Ki) was over 10000 nM, the Ki ([5]; read-out: pKi (converted)) was over 10000 nM and the EC50 ([6]; read-out: EC50) was 550 nM. It also gave a Ki ([7]; read-out: Ki) of over 1000 nM, a Ki ([7]; read-out: pKi (converted)) of over 1000 nM and an EC50 ([2]; read-out: EC50) of 550 nM. For the same compound, the Ratio Ki [8] was over 110, the Ki ([3]; read-out: Ki) was 8.9 nM and the Ki ([3]; read-out: pKi (converted)) was 8.71 nM. For the same compound, the Ratio Ki [9] was over 110 and the Ratio Ki [10] was over 1100.

Compound H-RYRARY-NH2 has an EC50 ([1]; read-out: EC50) of over 30000 nM, an EC50 ([1]; read-out: pEC50 (converted)) of over 31600 nM and an EC50 ([6]; read-out: EC50) of over 30000 nM. For the same compound, the EC50 ([6]; read-out: pEC50 (converted)) was over 31600 nM, the EC50 ([2]; read-out: EC50) was over 30000 nM and the EC50 ([2]; read-out: pEC50 (converted)) was over 31600 nM. For the same compound, the Ki ([3]; read-out: Ki) was 240 nM and the Ki ([3]; read-out: pKi (converted)) was 229 nM.

`N=C(N)NCCC[C@H](NC(=O)[C@H](Cc1c[nH]c2ccccc12)NC(=O)[C@@H](N)CCCNC(=N)N)C(=O)N[C@@H](Cc1ccc(O)cc1)C(N)=O` (H-RWRY-NH2) was tested, and the EC50 ([1]; read-out: EC50) was over 30000 nM, the EC50 ([1]; read-out: pEC50 (converted)) was over 31600 nM and the EC50 ([6]; read-out: EC50) was over 30000 nM. It also gave an EC50 ([6]; read-out: pEC50 (converted)) of over 31600 nM, an EC50 ([2]; read-out: EC50) of over 30000 nM and an EC50 ([2]; read-out: pEC50 (converted)) of over 31600 nM. For the same compound, the Ki ([3]; read-out: Ki) was 350 nM.
